This is an account of results in patent publication US10005767B2, “Compositions and methods for inhibition of the JAK pathway” (Rigel Pharmaceuticals, Inc., priority 2009, dated 2018).

Structures can show the parent of a compound that is named as a salt.

One assay relates to human primary T-cells, IL-2 stimulated proliferation (JAK-1 and JAK-3 dependent; reported as JAK3 activity). In words: Human primary T-cell proliferation stimulated by IL-2 (Example 3). In kind it is cell-based. The note with it: Homo sapiens, T-cell, tested under conditions described in Example 3 (IL-2 stimulated human primary T-cell proliferation); read-out: ability to inhibit JAK3 activity, IC50 range (Table V). An excerpt:
The activity of the compounds described herein can further be characterized by assaying the effect of the 2,4-pyrimidinediamine compounds described herein on the proliferative response of primary human T-cells. In this assay, primary human T-cells derived from peripheral blood and pre-activated through stimulation of the T-cell receptor and CD28, proliferate in culture in response to the cytokine Interleukin-2 (IL-2). This proliferative response is dependent on the activation of JAK1 and JAK3 tyrosine kinases, which phosphorylate and activate the transcription factor Stat-5. The primary human T-cells are incubated with the 2,4-pyrimidinediamine compounds in the presence of IL-2 for 72 hours, and at the assay endpoint intracellular ATP concentrations are measured to assess cell viability. A reduction in cell proliferation compared to control conditions is indicative of inhibition of the JAK kinase pathway.
Primary human T-cells derived from peripheral blood and pre-activated through stimulation of the T-cell receptor and CD28, proliferate in vitro in response to the cytokine Interleukin-2 (IL-2). This proliferative response is dependent on the activation of JAK-1 and JAK-3 tyrosine kinases, which phosphorylate and activate the transcription factor Stat-5.
Human primary T cells were prepared as follows. […] The lymphocytes at the serum: ficoll interface were recovered and washed twice with 5 volumes of PBS. […] The primary T-cells were stimulated for 3-4 days, then transferred to a fresh flask and maintained in RPMI with 10% FBS and 40 U/mL IL-2.
The day prior to the assay set up, primary T-cells were centrifuged and resuspended in fresh RPMI with 10% FBS but without IL-2 and starved overnight. For the assay, the primary T-cells were centrifuged and resuspended Yssel's medium at 2×10^6 cells/mL. 50 μL of cell suspension containing 80 U/mL IL-2 was added to each well of a flat bottom 96 well black plate. For the unstimulated control, IL-2 was omitted from the last column on the plate. […] 50 μL of 2× compound was added per well in duplicate and the cells were allowed to proliferate for 72 hours at 37° C.
Proliferation was measured using CellTiter-Glo® Luminescent Cell Viability Assay (Promega), which determines the number of viable cells in culture based on quantitation of the ATP present, as an indicator of metabolically active cells. The substrate was thawed and allowed to come to ambient temperature. After mixing the Cell Titer-Glo reagent and diluent together, 100 μL was added to each well. The plates were mixed on an orbital shaker for two minutes to induce lysis and incubated at ambient temperature for an additional ten minutes to allow the signal to equilibrate.
The compound designations in Table V are consistent with those of Tables I-IV above.
The term IC50 denotes the concentration at which inhibition is half-maximal. On to `COc1c(F)ccc(Nc2ncc(C)c(Nc3ccc4oc(=O)[nH]c4c3)n2)c1F` [Compound I-200, 5-[2-(2,4-Difluoro-3-methoxy-phenylamino)-5-methyl-pyrimidin-4-ylamino]-3H-benzooxazol-2-one], for which the concentration for half-maximal inhibition (IC50) is less than 500 nM. `Cc1cnc(Nc2ccc(-c3ccc(N4CCOCC4)nc3)cc2)nc1Nc1ccc2oc(=O)[nH]c2c1` [Compound I-512, 5-(5-methyl-2-(4-(6-morpholinopyridin-3-yl)phenylamino)pyrimidin-4-ylamino)benzo[d]oxazol-2(3H)-one trifluoroacetate salt]: the IC50 was less than 500 nM. On the same count and under the same terms, as for `Cc1cnc(Nc2ccc(NS(C)(=O)=O)cc2)nc1Nc1ccc2[nH]c(=O)[nH]c2c1` [Compound I-50, N2-(4-(methylsulfonylamino)phenyl)-N4-(1H-benzo[d]imidazol-2(3H)-on-5-yl)-5-methylpyrimidine-2,4-diamine], the figure is less than 500 nM; as for `CNC(C)c1cc(Nc2ncc(C)c(Nc3ccc4oc(=O)[nH]c4c3)n2)cc(C(F)(F)F)c1` (stereo not drawn) [Compound I-457, 5-(5-methyl-2-(3-(1-(methylamino)ethyl)-5-(trifluoromethyl)phenylamino)pyrimidin-4-ylamino)benzo[d]oxazol-2(3H)-one], less than 500 nM; as for `Cc1cnc(Nc2ccc(OCC(C)C)cc2)nc1Nc1ccc2oc(=O)[nH]c2c1` [Compound I-196, 5-[2-(4-Isobutoxy-phenylamino)-5-methyl-pyrimidin-4-ylamino]-3H-benzooxazol-2-one], less than 500 nM. Same read-out and setting: as for `Cc1cnc(Nc2c(C)cccc2F)nc1Nc1ccc2oc(=O)[nH]c2c1` [IV-62, 5-(2-(2-fluoro-6-methylphenylamino)-5-methylpyrimidin-4-ylamino)benzo[d]oxazol-2(3H)-one], the figure is 500 to 5000 nM; as for `Cc1cnc(Nc2cc(C(C)N3CCC3)cc(C(F)(F)F)c2)nc1Nc1ccc2oc(=O)[nH]c2c1` (stereo not drawn) [Compound I-464, 5-(2-(3-(1-(azetidin-1-yl)ethyl)-5-(trifluoromethyl)phenylamino)-5-methylpyrimidin-4-ylamino)benzo[d]oxazol-2(3H)-one], less than 500 nM. Still for that read-out and setting: as for `Cc1cnc(Nc2ccc(C(=O)NC3CCC3)cc2)nc1Nc1ccc2oc(=O)n(COP(=O)(O)O)c2c1` [Compound I-150, (5-(2-(4-(cyclobutylcarbamoyl)phenylamino)-5-methylpyrimidin-4-ylamino)-2-oxobenzo[d]oxazol-3(2H)-yl)methyl dihydrogen phosphate], the figure is less than 500 nM; as for `Cc1cnc(Nc2ccc(C(C)N3CCCC3)cc2)nc1Nc1ccc2oc(=O)[nH]c2c1` (stereo not drawn) [Compound I-203, 5-(5-methyl-2-(4-(1-(pyrrolidin-1-yl)ethyl)phenylamino)pyrimidin-4-ylamino)benzo[d]oxazol-2(3H)-one], less than 500 nM.

With `Cc1cnc(Nc2cc(Cl)c(F)c(C(F)(F)F)c2)nc1Nc1ccc2oc(=O)[nH]c2c1` [Compound I-230, 5-(2-(3-chloro-4-fluoro-5-(trifluoromethyl)phenylamino)-5-methylpyrimidin-4-ylamino)benzo[d]oxazol-2(3H)-one], the IC50 fell in the range of 500 to 5000 nM. The same measure, in the same setting: as for `COc1cc(Nc2ncc(C)c(Nc3ccc4oc(=O)[nH]c4c3)n2)cc(C(=O)N2CCN(C)CC2)c1` [Compound I-255, 5-(2-(3-methoxy-5-(4-methylpiperazine-1-carbonyl)phenylamino)-5-methylpyrimidin-4-ylamino)benzo[d]oxazol-2(3H)-one], the figure is less than 500 nM; as for `Cc1cc(Nc2ncc(F)c(Nc3ccc4oc(=O)[nH]c4c3)n2)cnc1N1CCN(C)CC1` [II-30, N4-(benzoxazolin-2-on-5-yl)-N2-[3-methyl-2-(4-methylpiperazin-1-yl)pyridin-5-yl]-5-fluoropyrimidine-2,4-diamine], less than 500 nM; as for `Cc1cnc(Nc2cccc(C(=O)N3CCOCC3)c2)nc1Nc1ccc2oc(=O)[nH]c2c1` [Compound I-256, 5-(5-methyl-2-(3-(morpholine-4-carbonyl)phenylamino)pyrimidin-4-ylamino)benzo[d]oxazol-2(3H)-one], less than 500 nM.

With `Cc1cnc(Nc2ccc(OC(F)F)c(C(F)F)c2)nc1Nc1ccc2oc(=O)[nH]c2c1` [Compound I-442, 5-(2-(4-(difluoromethoxy)-3-(difluoromethyl)phenylamino)-5-methylpyrimidin-4-ylamino)benzo[d]oxazol-2(3H)-one formate salt], the IC50 was less than 500 nM.

Regarding `COC(=O)c1ccc(Nc2ncc(C)c(Nc3ccc4oc(=O)[nH]c4c3)n2)cc1` [Compound I-125, 4-[5-Methyl-4-(2-oxo-2,3-dihydro-benzooxazol-5-ylamino)-pyrimidin-2-ylamino]-benzoic acid methyl ester], the IC50 was less than 500 nM. Regarding `Cc1cnc(Nc2cc(C)c(C)c(C)c2)nc1Nc1cc(C)c2oc(=O)[nH]c2c1` [Compound I-475, 7-methyl-5-(5-methyl-2-(3,4,5-trimethylphenylamino)pyrimidin-4-ylamino)benzo[d]oxazol-2(3H)-one], the IC50 is less than 500 nM.

In the case of `Cc1cnc(Nc2cncc(Br)c2)nc1Nc1ccc2oc(=O)[nH]c2c1` [II-77, 5-(2-(5-bromopyridin-3-ylamino)-5-methylpyrimidin-4-ylamino)benzo[d]oxazol-2(3H)-one], the IC50 was 500 to 5000 nM. `COc1cc(Nc2ncc(C)c(Nc3ccc4oc(=O)[nH]c4c3)n2)cc(OC)c1C` [Compound I-529, 5-(2-(3,5-dimethoxy-4-methylphenylamino)-5-methylpyrimidin-4-ylamino)benzo[d]oxazol-2(3H)-one]: the IC50 is less than 500 nM.

The assay is the same for the next values; noted with them: tested under conditions described in Example 3 (IL-2 stimulated human primary T-cell proliferation); read-out: ability to inhibit JAK3 activity, IC50 range (Table V).
Regarding `Cc1cnc(Nc2ccc(N(C)S(C)(=O)=O)cc2)nc1Nc1ccc2c(c1)oc(=O)n2C` [Compound I-95, N2-((4-methylsulfonyl-N-methylamino)phenyl)-N4-(3-methyl-2-oxo-2,3-dihydrobenzo[d]oxazol-6-yl)-5-methylpyrimidine-2,4-diamine], the IC50 is less than 500 nM. As to `Cc1cnc(Nc2cc(C)c(OC(C)(C)C(N)=O)c(C)c2)nc1Nc1ccc2oc(=O)[nH]c2c1` [Compound I-389, N2-[4-(1-aminocarbonyl-1-methyl)ethoxy-3,5-dimethyl]phenyl-5-methyl-N4-(2-oxo-2,3-dihydro-1,3-benzoxazol-5-yl)-2,4-pyrimidinediamine], the IC50 is less than 500 nM. On the same count and under the same terms, as for `Cc1cnc(Nc2ccc(S(=O)(=O)C(F)(F)F)cc2)nc1Nc1ccc2oc(=O)[nH]c2c1` [Compound I-117, N4-(benzo[d]oxazol-2(3H)-on-5-yl)-N2-(4-trifluoromethylsulfonyl)phenyl-5-methylpyrimidine-2,4-diamine], the figure is less than 500 nM; as for `Cn1c(=O)oc2ccc(Nc3nc(Nc4ccc(F)c(NS(C)(=O)=O)c4)ncc3F)cc21` [Compound I-91, N2-((4-fluoro-3-methylsulfonylamino)phenyl)-N4-(3-methyl-2-oxo-2,3-dihydrobenzo[d]oxazol-5-yl)-5-fluoropyrimidine-2,4-diamine], 500 to 5000 nM; as for `Cc1cnc(Nc2ccc(OC(F)(F)F)c(F)c2)nc1Nc1ccc2oc(=O)[nH]c2c1` [Compound I-376, N2-(3-fluoro-4-trifluoromethoxy)phenyl-5-methyl-N4-(2-oxo-2,3-dihydro-1,3-benzoxazol-5-yl)-2,4-pyrimidinediamine], less than 500 nM.

With `Cc1cnc(Nc2ccc(F)c(NS(C)(=O)=O)c2)nc1Nc1ccc2c(c1)oc(=O)n2C` [Compound I-89, N2-((4-fluoro-3-methylsulfonylamino)phenyl)-N4-(3-methyl-2-oxo-2,3-dihydrobenzo[d]oxazol-6-yl)-5-methylpyrimidine-2,4-diamine], the IC50 is less than 500 nM. The same measure, in the same setting: as for `Cc1cnc(Nc2ccc(N3CCOC(C)C3)nc2)nc1Nc1ccc2oc(=O)[nH]c2c1` (stereo not drawn) [II-138, 5-methyl-N2-[2-(2S-methylmorpholino)pyridin-5-yl]-N4-(2-oxo-2,3-dihydro-1,3-benzoxazol-5-yl)-2,4-pyrimidinediamine], the figure is less than 500 nM. Same read-out and setting: as for `Cc1cnc(Nc2ccc(N3CCN4CCCCC4C3)nc2)nc1Nc1ccc2oc(=O)[nH]c2c1` (stereo not drawn) [II-128, N2-[2-(1,4-diazabicylco[4.4.0]decan-4-yl)pyridin-5-yl]-5-methyl-N4-(2-oxo-2,3-dihydro-1,3-benzoxazol-5-yl)-2,4-pyrimidinediamine], the figure is less than 500 nM. In the case of `NS(=O)(=O)c1cccc(Nc2ncc(F)c(Nc3ccc4oc(=O)[nH]c4c3)n2)c1` [Compound I-18], the IC50 is less than 500 nM.
